# Columns and labels:
# [1] = system: NAD^+ levels in HeLa cells; settings: Compound 1 100 nM, 10 mM nicotinic acid
# Description: (§1) Viability was measured after 72 hours by ViaLight assay (assessing ATP levels). […] Each bar is the mean±SD of quadruplicate samples. Each figure is representative of two independent experiments.
# [2] = system: NF-κB regulated gene expression in HeLa cells; settings: Compound 1 100 nM, 10 mM nicotinic acid, 24 hrs then 4 hours TNFα
# Description: as §1
# HT1080 fibrosarcoma = settings: 0.01, 0.1 and 1 mM nicotinic acid
# T98G (glioblastoma) = settings: 0.01, 0.1 and 1 mM nicotinic acid
# MG-63 osteosarcoma = settings: 0.01, 0.1 and 1 mM nicotinic acid
# SW1353 chondrosarcoma = settings: 0.01, 0.1 and 1 mM nicotinic acid
# U-2OS osteosarcome = settings: 0.01, 0.1 and 1 mM nicotinic acid
# [3] = system: human multiple myeloma IM-9 cancer cells; assay: Xenograft of a cancer not deficient in nicotinic acid pathway; type: in vivo, CB17 SCID mice; settings: nicotinic acid 120 mg/kg 4 hours infusion after Compound 2 150 mg/kg
# Description: Human multiple myeloma IM-9 cancer cells were maintained in RPMI (Hyclone, Utah, USA) supplemented with 10% inactivated fetal bovine serum (Bio-Whittaker; MD, USA) and 1% penicillin-streptomycin-L-Glutamine (Gibco; NY, USA), under 5% CO2 at 37° C. IM-9 cells were transplanted subcutaneously into the flank of female mice. Each mouse was inoculated with a suspension of 10×10^6 tumors cells per 100 μl in PBS on day zero.
# Treatments started on day eight after IM-9 cells transplantation. […] The control group was treated with vehicle (0.9% NaCl) alone for 104 hours. […] Compound 2 was prepared fresh for dosing and formulated in a vehicle solution of 10 mM citrate buffer at pH 4.8.
# Observation continued for 23 days after initial tumor implantation.
# [4] = system: Human Fibrosarcoma HT1080 cancer cells; assay: Xenograft of a cancer deficient in nicotinic acid pathway; type: in vivo, mice
# Description: Human Fibrosarcoma HT1080 cancer cells were maintained in RPMI (Hyclone, Utah, USA) supplemented with 10% inactivated fetal bovine serum (Bio-Whittaker, Md., USA) and 1% penicillin-streptomycin-L-Glutamine (Gibco; NY, USA), under 5% CO2 at 37° C. HT1080 cells were transplanted subcutaneously into the flank of female mice. Each mouse was inoculated with a suspension of 1×10^6 tumors cells per 100 μl in PBS on day zero.
# Treatments started on day fifteen after HT1080 cells transplantation. […] The control group was treated with vehicle (0.9% NaCl) alone for 104 hours. Treatments were conducted using Lomir External pump—Model 220 with a flow rate of 50 μL/hr (˜2.5 mL/kg/hr) and equipped with 1 cc syringes for treated groups or equipped with 10 cc syringes for the control group. Compound 2 was prepared fresh for dosing and formulated in a vehicle solution of 10 mM citrate buffer at pH 4.8.
# Observation continued for 22 days after initial tumor implantation.
# A204 rhabdomyosarcoma = settings: 0.01, 0.1 and 1 mM nicotinic acid
# [5] = system: SW982 synovial sarcoma cell line; settings: 0.01, 0.1 and 1 mM nicotinic acid
# Excerpt: In FIGS. 10 and 11, fraction of cell survived is indicated by the vertical axis (labeled as “% control”).
# IMR32 (neuroblastoma) = settings: 0.01, 0.1 and 1 mM nicotinic acid
# GCT MFH histiocytoma = settings: 0.01, 0.1 and 1 mM nicotinic acid
# [6] = system: colon cancer cell line Colo320DM; settings: the only one of fourteen other carcinomas
# [7] = system: Hs821.T giant cell sarcome; settings: 0.01, 0.1 and 1 mM nicotinic acid
smiles,measurement,setting,value
O=C(O)c1cccnc1 [nicotinic acid],Rescue from decline in NAD^+ levels,[1],can rescue
same,Rescue from NF-κB inhibition,[2],can rescue
same,Rescue from Compound 1 induced cytotoxicity by nicotinic acid,HT1080 fibrosarcoma,not rescued
same,Rescue from Compound 1 induced cytotoxicity by nicotinic acid,T98G (glioblastoma),not rescued
same,Rescue from Compound 1 induced cytotoxicity by nicotinic acid,MG-63 osteosarcoma,not rescued
same,Rescue from Compound 1 induced cytotoxicity by nicotinic acid,SW1353 chondrosarcoma,not rescued
same,Rescue from Compound 1 induced cytotoxicity by nicotinic acid,U-2OS osteosarcome,not rescued
same,Effect of nicotinic acid on the anti-tumor activity of Compound 2,[3],able to inhibit the anti-tumor activity of Compound 2
same,Effect of niacin on the anti-tumor activity of Compound 2,[4]; niacin 120 mg/kg 4 hours after Compound 2 150 mg/kg,unable to inhibit the anti-tumor activity of Compound 2
same,Effect of niacin on the anti-tumor activity of Compound 2,[4]; niacin 120 mg/kg 4 hours after Compound 2 650 mg/kg,did not inhibit the anti-tumor activity of Compound 2
same,Rescue from Compound 1 induced cytotoxicity by nicotinic acid,A204 rhabdomyosarcoma,not rescued
same,Rescue from Compound 1 induced cytotoxicity by nicotinic acid,[5],rescue
same,Percentage of sarcomas not being rescued,"cancer cell lines; 13 sarcoma cell lines, Compound 1 with nicotinic acid",60%
same,Neuroblastoma and glioblastoma cell lines not rescued by nicotinic acid,cancer cell lines; Compound 1 induced cytotoxicity,Two out of three
same,Number of sarcoma cell lines not rescued by nicotinic acid,"cancer cell lines; out of 13 sarcoma cell lines tested, Compound 1 with 0.01, 0.1 and 1 mM nicotinic acid",8
same,Rescue from Compound 1 induced cytotoxicity by nicotinic acid,IMR32 (neuroblastoma),not rescued
same,Rescue from Compound 1 induced cytotoxicity by nicotinic acid,GCT MFH histiocytoma,not rescued
same,Rescue from Compound 1 induced cytotoxicity by nicotinic acid,[6],not rescued
same,Rescue from Compound 1 induced cytotoxicity by nicotinic acid,[7],not rescued

# — patent publication US8211912B2, “Compositions and methods for effecting NAD+ levels using a nicotinamide phosphoribosyl tranferase inhibitor” (Gemin X Pharmaceuticals Canada, priority 2007, dated 2012)
